Test results reported in ChEMBL document CHEMBL1201862, “PubChem BioAssay data set” (2004).
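Following 48 hours of exposure in 96-well plates, responses at five concentrations were used to interpolate endpoints linearly. GI50: concentration for 50% inhibition of growth.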 The source made the active and inactive calls. Cut-off read from the data, not from the text of the source: active = GI50 up to about 1.1 µM and inactive = higher. Starred links: 1 amine or outer side, 2 acyl side, 3 side chain; linkers in the order of their positions; H or OH if unused. Non-standard residues stand in square brackets, D forms with d. Residues, ends and D or L forms follow the SMILES beside them. *: point of attachment. X34 = CC(=O)N(C)SCC(N[*:1])C(=O)[*:2]; Cbz = O=C(OCc1ccccc1)*; Bn = c1ccc(C*)cc1; For = O=C*

Key:
Experiment in all cases: inhibition of tumour cell growth, NCI panel, 48 h
A498 = tested on: A498
CAKI-1 = tested on: CAKI-1
CCRF-CEM = tested on: CCRF-CEM
HOP-62 = tested on: HOP-62
Hs-578T = tested on: Hs-578T
LOX IMVI = tested on: LOX IMVI
M14 = tested on: M14
MDA-MB-435 = tested on: MDA-MB-435
NCI-H522 = tested on: NCI-H522
OVCAR-4 = tested on: OVCAR-4
RXF 393 = tested on: RXF 393
SK-MEL-2 = tested on: SK-MEL-2
SK-MEL-5 = tested on: SK-MEL-5
SN12C = tested on: SN12C
SR = tested on: SR
TK-10 = tested on: TK-10
U-251 = tested on: U-251
UACC-257 = tested on: UACC-257
UACC-62 = tested on: UACC-62
HCC 2998 = tested on: HCC 2998

| SMILES | GI50 (A498) | GI50 (CAKI-1) | GI50 (CCRF-CEM) | GI50 (HOP-62) | GI50 (Hs-578T) | GI50 (LOX IMVI) | GI50 (M14) | GI50 (MDA-MB-435) | GI50 (NCI-H522) | GI50 (OVCAR-4) | GI50 (RXF 393) | GI50 (SK-MEL-2) | GI50 (SK-MEL-5) | GI50 (SN12C) | GI50 (SR) | GI50 (TK-10) | GI50 (U-251) | GI50 (UACC-257) | GI50 (UACC-62) | GI50 (HCC 2998) |
| --- | --- | --- | --- | --- | --- | --- | --- | --- | --- | --- | --- | --- | --- | --- | --- | --- | --- | --- | --- | --- |
| CCc1ncnc2cc(OCC3CO3)c(OC)cc12 (stereo unspecified) | 21.3 µM (inactive) | 5.06 µM (inactive) | 0.436 µM (active) | 3.18 µM (inactive) | 5.77 µM (inactive) | 0.646 µM (active) | 5.28 µM (inactive) | 5.12 µM (inactive) | 2.31 µM (inactive) | 6.38 µM (inactive) | 2.28 µM (inactive) | 3.32 µM (inactive) | 6.34 µM (inactive) | 1.3 µM (inactive) | 0.209 µM (active) | 10.8 µM (inactive) | 4.31 µM (inactive) | 13.6 µM (inactive) | 2.86 µM (inactive) | – |
| CCOC(=O)c1c(N2CCOCC2)[nH]c(=O)c(C(c2ccc(OC)cc2)c2c(O)c(C(=O)OCC)c(N3CCOCC3)[nH]c2=O)c1O | > 100 µM (inactive) | > 100 µM (inactive) | > 100 µM (inactive) | > 100 µM (inactive) | > 100 µM (inactive) | > 100 µM (inactive) | > 100 µM (inactive) | > 100 µM (inactive) | > 100 µM (inactive) | > 100 µM (inactive) | > 100 µM (inactive) | – | > 100 µM (inactive) | > 100 µM (inactive) | > 100 µM (inactive) | > 100 µM (inactive) | > 100 µM (inactive) | > 100 µM (inactive) | > 100 µM (inactive) | > 100 µM (inactive) |
| NS(=O)(=O)c1ccc(NC(=S)N/C=C2\C(=O)Nc3ccccc3C2=O)cc1 | – | 20.1 µM (inactive) | > 100 µM (inactive) | > 100 µM (inactive) | > 100 µM (inactive) | > 100 µM (inactive) | > 100 µM (inactive) | > 100 µM (inactive) | > 100 µM (inactive) | > 100 µM (inactive) | > 100 µM (inactive) | > 100 µM (inactive) | > 100 µM (inactive) | > 100 µM (inactive) | > 100 µM (inactive) | > 100 µM (inactive) | > 100 µM (inactive) | > 100 µM (inactive) | > 100 µM (inactive) | > 100 µM (inactive) |
| CC1(C)C=C(/C=N/Nc2ccc(Br)cc2)C(C#N)=C(O)C1(C#N)C#N | – | 36.1 µM (inactive) | 35.8 µM (inactive) | 63 µM (inactive) | 63.8 µM (inactive) | 64.6 µM (inactive) | 26.6 µM (inactive) | 39.7 µM (inactive) | 75.9 µM (inactive) | 40 µM (inactive) | 33.8 µM (inactive) | – | > 100 µM (inactive) | 59.8 µM (inactive) | 26.4 µM (inactive) | 83.6 µM (inactive) | – | 31.8 µM (inactive) | 38.7 µM (inactive) | 24.5 µM (inactive) |
| O=CN(CCN1CCCC1)C1CCc2cc(Cl)c(Cl)cc2C1 (stereo unspecified) | – | 18.9 µM (inactive) | 22.5 µM (inactive) | 11.3 µM (inactive) | 13.6 µM (inactive) | 14 µM (inactive) | 15.9 µM (inactive) | 15 µM (inactive) | 10.1 µM (inactive) | 18.7 µM (inactive) | 10.9 µM (inactive) | – | 27.2 µM (inactive) | 11 µM (inactive) | 23.9 µM (inactive) | 16.3 µM (inactive) | 0.513 µM (active) | 15.2 µM (inactive) | – | 17.5 µM (inactive) |
| O=c1[nH]c2cc([N+](=O)[O-])c(N(CCO)CCO)c([N+](=O)[O-])c2[nH]1 | 22.2 µM (inactive) | 29 µM (inactive) | 44.7 µM (inactive) | 33 µM (inactive) | 53.2 µM (inactive) | 37.5 µM (inactive) | 28.6 µM (inactive) | 28.7 µM (inactive) | 28.1 µM (inactive) | 36 µM (inactive) | 16.7 µM (inactive) | 37.6 µM (inactive) | 17.5 µM (inactive) | 34.8 µM (inactive) | 24.1 µM (inactive) | – | 44.1 µM (inactive) | 27 µM (inactive) | 24.1 µM (inactive) | – |
| O=[N+]([O-])c1ccc2c(c1)N=C1OC(c3c[nH]c4ccc(COc5ccccc5)cc34)C(O)=C1N2 (stereo unspecified) | > 100 µM (inactive) | > 100 µM (inactive) | – | 60.3 µM (inactive) | > 100 µM (inactive) | > 100 µM (inactive) | > 100 µM (inactive) | > 100 µM (inactive) | 17.3 µM (inactive) | > 100 µM (inactive) | > 100 µM (inactive) | > 100 µM (inactive) | 37.5 µM (inactive) | > 100 µM (inactive) | 7.71 µM (inactive) | 59.2 µM (inactive) | > 100 µM (inactive) | 33.7 µM (inactive) | 52 µM (inactive) | 21.2 µM (inactive) |
| CC(=O)N(C)SCC(NC(=O)C(Cc1ccccc1)NC(=O)OCc1ccccc1)C(=O)NC(Cc1ccccc1)C(=O)NC(Cc1cn(C=O)c2ccccc12)C(=O)NC(CCCCNC(=O)OCc1ccccc1)C(=O)NC(C(=O)NC(CSN(C)C(C)=O)C(=O)NC(C(N)=O)C(C)OCc1ccccc1)C(C)OCc1ccccc1 (stereo unspecified) (Cbz-F[X34]FW(For)K(Cbz)T(Bn)[X34]T(Bn)-NH2; configuration not given here) | – | – | > 100 µM (inactive) | 82.8 µM (inactive) | 8.63 µM (inactive) | > 100 µM (inactive) | 46.9 µM (inactive) | > 100 µM (inactive) | 87.9 µM (inactive) | 54.2 µM (inactive) | 14.6 µM (inactive) | 3.77 µM (inactive) | > 100 µM (inactive) | > 100 µM (inactive) | > 100 µM (inactive) | 20.6 µM (inactive) | 32.2 µM (inactive) | > 100 µM (inactive) | 84.9 µM (inactive) | > 100 µM (inactive) |
| O=[N+]([O-])c1ccccc1S(=O)(=O)c1cc(Cl)cc2c1NCCC2 | > 100 µM (inactive) | 60.4 µM (inactive) | 36.1 µM (inactive) | > 100 µM (inactive) | 40.1 µM (inactive) | 43.9 µM (inactive) | 63 µM (inactive) | 35.5 µM (inactive) | – | > 100 µM (inactive) | 63 µM (inactive) | 43.6 µM (inactive) | 29.7 µM (inactive) | 90.6 µM (inactive) | 42.8 µM (inactive) | > 100 µM (inactive) | – | 35.6 µM (inactive) | 38.5 µM (inactive) | 20.1 µM (inactive) |
| CCOP(=O)(OCC)C(C)(CC)NC1=NC(C(F)(F)F)(C(F)(F)F)NC(=O)N1 (stereo unspecified) | – | > 100 µM (inactive) | > 100 µM (inactive) | > 100 µM (inactive) | 29.8 µM (inactive) | > 100 µM (inactive) | > 100 µM (inactive) | > 100 µM (inactive) | – | > 100 µM (inactive) | > 100 µM (inactive) | > 100 µM (inactive) | > 100 µM (inactive) | > 100 µM (inactive) | > 100 µM (inactive) | > 100 µM (inactive) | > 100 µM (inactive) | > 100 µM (inactive) | > 100 µM (inactive) | > 100 µM (inactive) |
| CCOC(=O)c1nc2ccc(C(F)(F)F)cc2nc1Oc1ccc(C#N)cc1 | 23.3 µM (inactive) | 20.3 µM (inactive) | > 100 µM (inactive) | 15.5 µM (inactive) | 14.3 µM (inactive) | 39.6 µM (inactive) | 18.5 µM (inactive) | 42.9 µM (inactive) | – | 29.6 µM (inactive) | 20 µM (inactive) | 15.7 µM (inactive) | 38.3 µM (inactive) | – | 81.5 µM (inactive) | 30.1 µM (inactive) | 26.3 µM (inactive) | 25.5 µM (inactive) | 19.1 µM (inactive) | 61.4 µM (inactive) |
| O=S(=O)(O)c1ccc(/N=N/c2ccc(/N=N/c3c(O)ccc4ccccc34)c(S(=O)(=O)O)c2)cc1 | – | > 100 µM (inactive) | > 100 µM (inactive) | > 100 µM (inactive) | > 100 µM (inactive) | – | > 100 µM (inactive) | > 100 µM (inactive) | > 100 µM (inactive) | – | > 100 µM (inactive) | > 100 µM (inactive) | > 100 µM (inactive) | – | > 100 µM (inactive) | > 100 µM (inactive) | > 100 µM (inactive) | > 100 µM (inactive) | > 100 µM (inactive) | > 100 µM (inactive) |
| Nc1nccc(NCC2(CO)CCC2)n1 | > 100 µM (inactive) | 63.4 µM (inactive) | > 100 µM (inactive) | > 100 µM (inactive) | > 100 µM (inactive) | > 100 µM (inactive) | – | > 100 µM (inactive) | > 100 µM (inactive) | – | > 100 µM (inactive) | > 100 µM (inactive) | > 100 µM (inactive) | > 100 µM (inactive) | > 100 µM (inactive) | 36.7 µM (inactive) | > 100 µM (inactive) | > 100 µM (inactive) | > 100 µM (inactive) | > 100 µM (inactive) |
| COc1ccc(/C=C/c2cc(O)cc(OC)c2)cc1 | > 100 µM (inactive) | > 100 µM (inactive) | – | > 100 µM (inactive) | > 100 µM (inactive) | – | > 100 µM (inactive) | 68.4 µM (inactive) | 65.3 µM (inactive) | > 100 µM (inactive) | > 100 µM (inactive) | > 100 µM (inactive) | > 100 µM (inactive) | 65.2 µM (inactive) | > 100 µM (inactive) | > 100 µM (inactive) | 28.7 µM (inactive) | > 100 µM (inactive) | > 100 µM (inactive) | – |
